Results published in patent US12673975B2, “Cyclic peptide, cell scaffold material, cell separating material, and medium” (FUJIFILM Corporation, priority 2019, dated 2026).
Read-outs that look alike come from different tables or passages of the source. Starred links: 1 amine or outer side, 2 acyl side, 3 side chain; linkers in the order of their positions; H or OH if unused. Positions of bridges follow the written chain, without caps; N, C: chain ends. Non-standard residues stand in square brackets, D forms with d. Residues, ends and D or L forms follow the SMILES beside them. hCys = N[C@@H](CCS)C(=O)O; Dab = NCC[C@H](N)C(=O)O; Dap = NC[C@H](N)C(=O)O; X1 = O=C(C[*:2])[*:1]; X2 = O=C(C[*:1])[*:2]

Columns and labels:
[1] = target: human integrin αvβ5 (Homo sapiens, UniProt P06756+P18084); test: Evaluation of integrin binding property (surface plasmon resonance, Biacore 3000, immobilized cyclic peptide)
Chain of human integrin αvβ5 (P06756 31-1048): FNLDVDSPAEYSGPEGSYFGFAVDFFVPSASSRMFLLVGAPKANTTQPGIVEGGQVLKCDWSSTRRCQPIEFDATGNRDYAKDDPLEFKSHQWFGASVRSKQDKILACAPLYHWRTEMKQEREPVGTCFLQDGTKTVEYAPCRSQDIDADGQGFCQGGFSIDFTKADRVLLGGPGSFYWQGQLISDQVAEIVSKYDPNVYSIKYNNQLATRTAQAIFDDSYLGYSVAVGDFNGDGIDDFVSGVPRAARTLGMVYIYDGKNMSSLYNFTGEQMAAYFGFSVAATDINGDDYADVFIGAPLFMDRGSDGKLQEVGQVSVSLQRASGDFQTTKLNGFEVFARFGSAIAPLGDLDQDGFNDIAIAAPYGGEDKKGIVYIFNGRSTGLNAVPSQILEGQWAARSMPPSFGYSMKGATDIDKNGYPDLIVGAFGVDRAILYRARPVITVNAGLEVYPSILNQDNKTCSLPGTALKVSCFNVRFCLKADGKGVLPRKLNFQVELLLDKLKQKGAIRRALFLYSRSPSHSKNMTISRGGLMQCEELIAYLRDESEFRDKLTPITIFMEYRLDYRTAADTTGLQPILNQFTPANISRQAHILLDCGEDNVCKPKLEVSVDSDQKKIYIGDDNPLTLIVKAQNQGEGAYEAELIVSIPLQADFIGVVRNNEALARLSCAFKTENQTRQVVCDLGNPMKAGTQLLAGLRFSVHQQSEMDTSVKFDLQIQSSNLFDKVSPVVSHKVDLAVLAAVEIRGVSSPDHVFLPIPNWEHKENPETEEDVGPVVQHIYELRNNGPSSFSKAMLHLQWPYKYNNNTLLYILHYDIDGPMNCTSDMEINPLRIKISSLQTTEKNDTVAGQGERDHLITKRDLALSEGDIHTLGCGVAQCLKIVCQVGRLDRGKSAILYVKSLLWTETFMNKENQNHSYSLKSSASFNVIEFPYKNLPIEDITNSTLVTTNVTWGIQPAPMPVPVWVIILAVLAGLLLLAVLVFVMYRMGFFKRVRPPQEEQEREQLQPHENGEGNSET
Chain of human integrin αvβ5 (P18084 24-799): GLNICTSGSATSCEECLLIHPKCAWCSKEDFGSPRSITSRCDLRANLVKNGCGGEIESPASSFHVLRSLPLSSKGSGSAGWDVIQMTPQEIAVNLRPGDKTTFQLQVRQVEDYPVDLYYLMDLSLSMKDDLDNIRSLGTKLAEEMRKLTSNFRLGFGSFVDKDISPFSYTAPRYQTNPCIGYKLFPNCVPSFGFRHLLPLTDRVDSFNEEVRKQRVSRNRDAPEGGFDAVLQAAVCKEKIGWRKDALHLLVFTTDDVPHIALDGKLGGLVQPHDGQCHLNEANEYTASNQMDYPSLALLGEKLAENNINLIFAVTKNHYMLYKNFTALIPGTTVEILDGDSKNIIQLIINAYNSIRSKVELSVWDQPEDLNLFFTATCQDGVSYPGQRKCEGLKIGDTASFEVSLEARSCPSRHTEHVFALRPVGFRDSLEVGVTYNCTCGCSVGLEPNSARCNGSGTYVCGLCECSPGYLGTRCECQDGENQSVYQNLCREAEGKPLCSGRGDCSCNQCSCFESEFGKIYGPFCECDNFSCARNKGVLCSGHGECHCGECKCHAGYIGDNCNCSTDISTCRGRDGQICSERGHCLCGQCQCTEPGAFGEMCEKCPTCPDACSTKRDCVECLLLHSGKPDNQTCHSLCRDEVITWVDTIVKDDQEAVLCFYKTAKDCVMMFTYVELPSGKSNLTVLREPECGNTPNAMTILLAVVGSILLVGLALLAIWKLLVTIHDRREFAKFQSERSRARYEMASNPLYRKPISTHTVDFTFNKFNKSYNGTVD
Method in brief: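 Human αvβ5 (30-1,000 nM) flowed for 10 min at 25 °C over immobilized cyclic peptide in 20 mM HEPES, 150 mM NaCl, 5 mM MgCl2, pH 7.4, followed by 30 min running buffer and 0.5 M EDTA regeneration. Dissociation constant from peptide minus unimmobilized channel, scored into standard grades.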

[2] = Evaluation of molecule stability (alkali treatment, residual rate by LC/MS); assay type: physicochemical; details: for Performance evaluation: Stability (residual rate of cyclic peptide after alkali treatment): 500 μM peptide aqueous solution plus equivalent of 1 M sodium hydroxide, 15° C., 3 hours, LC/MS peak area; for Stability (molecule stability, residual rate of the cyclic peptide rank): alkali treatment, residual rate by LC/MS
Method in brief: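 Stability read as percent of summed LC/MS peak area remaining versus untreated peptide (C18, 45 °C, 10 mM ammonium formate pH 3, ESI positive/negative). Treatment: 500 μM peptide in water plus an equivalent of 1 M NaOH, 15 °C for 3 hours.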

[3] = SPR, 25° C., HEPES buffer with 5 mM magnesium chloride, integrin 30-1,000 nM, read-out: Performance evaluation: Binding activity (dissociation constant between the cyclic peptide and human integrin αvβ5)
[4] = surface plasmon resonance, immobilized cyclic peptide, human integrin αvβ5, read-out: Binding activity (integrin binding property, dissociation constant rank)

Compound | Kd [1, 3] [nM] | Performance evaluation: Stability (residual rate of cyclic peptide after alkali treatment) [2] | Kd [1, 4] [nM] | Stability (molecule stability, residual rate of the cyclic peptide rank) [2] | molecule stability (in words) ([2]; summary of Table 9 to Table 13)
CC(C)[C@@H]1NC(=O)[C@@H](NC(=O)[C@H](C)NC(=O)[C@H](CCCCN)NC(=O)[C@H](CCCCN)NC(=O)[C@@H](N)CCCCN)CCSCC(=O)NCC[C@@H](C(=O)N[C@@H](CC(=O)O)C(=O)O)NC(=O)[C@H](CCCNC(=N)N)NC(=O)[C@H](Cc2ccc(O)cc2)NC(=O)[C@H](CC(N)=O)NC(=O)[C@H](CC(=O)O)NC(=O)CNC(=O)[C@H](CCCNC(=N)N)NC(=O)[C@@H]2CCCN2C1=O [Cyclic peptide 29, KKKA-(Hcy)-VPRGDNYR(Dab(acetyl))D] (H-KKKA[hCys]VPRGDNYR[Dab]D-OH; linker 5-14 via X2) | 50 to 100 | A (The residual rate of the cyclic peptide is 70% or more.) |  |  | 
CC[C@H](C)[C@@H]1NC(=O)[C@@H](NC(=O)[C@H](C)N)CCSCC(=O)NCC[C@@H](C(=O)N[C@@H](C)C(=O)N[C@@H](CCCCN)C(=O)N[C@@H](CCCCN)C(=O)N[C@@H](CCCCN)C(=O)O)NC(=O)[C@H](C)NC(=O)[C@H](Cc2ccccc2)NC(=O)[C@H](CO)NC(=O)[C@H](CC(=O)O)NC(=O)CNC(=O)[C@H](CCCNC(=N)N)NC(=O)[C@@H]2CCCN2C1=O [Cyclic peptide 100, A-(Hcy)-IPRGDSFA(Dab(acetyl))AKKK] (H-A[hCys]IPRGDSFA[Dab]AKKK-OH; linker 2-11 via X2) | < 50 | A (The residual rate of the cyclic peptide is 70% or more.) |  |  | 
CC[C@H](C)[C@@H]1NC(=O)[C@@H](NC(=O)CNC(=O)[C@H](CCCCN)NC(=O)[C@H](CCCCN)NC(=O)[C@@H](N)CCCCN)CCSCC(=O)NCC[C@@H](C(=O)O)NC(=O)[C@H](CCCNC(=N)N)NC(=O)[C@H](Cc2ccccc2)NC(=O)[C@H]([C@@H](C)O)NC(=O)[C@H](CC(=O)O)NC(=O)CNC(=O)[C@H](CCCNC(=N)N)NC(=O)[C@@H]2CCCN2C1=O [Cyclic peptide 59, KKKG-(Hcy)-IPRGDTFR(Dab(acetyl))] (H-KKKG[hCys]IPRGDTFR[Dab]-OH; linker 5-14 via X2) | < 50 | A (The residual rate of the cyclic peptide is 70% or more.) |  |  | 
CC[C@H](C)[C@@H]1NC(=O)[C@@H](NC(=O)[C@H](C)NC(=O)[C@H](CCCCN)NC(=O)[C@H](CCCCN)NC(=O)[C@@H](N)CCCCN)CCSCC(=O)NCC[C@@H](C(=O)N[C@@H](C)C(=O)O)NC(=O)[C@H](C)NC(=O)[C@H](Cc2ccccc2)NC(=O)[C@H](CO)NC(=O)[C@H](CC(=O)O)NC(=O)CNC(=O)[C@H](CCCNC(=N)N)NC(=O)[C@@H]2CCCN2C1=O [Cyclic peptide 92, KKKA-(Hcy)-IPRGDSFA(Dab(acetyl))A] (H-KKKA[hCys]IPRGDSFA[Dab]A-OH; linker 5-14 via X2) | < 50 | A (The residual rate of the cyclic peptide is 70% or more.) |  |  | 
CC[C@H](C)[C@@H]1NC(=O)[C@@H](NC(=O)[C@H](CCCCN)NC(=O)[C@H](CCCCN)NC(=O)[C@@H](N)CCCCN)CCSCC(=O)NCC[C@@H](C(=O)N[C@@H](C)C(=O)O)NC(=O)[C@H](C)NC(=O)[C@H](CCCNC(=N)N)NC(=O)[C@H](Cc2ccccc2)NC(=O)[C@H](CC(N)=O)NC(=O)[C@H](CC(=O)O)NC(=O)CNC(=O)[C@H](CCCNC(=N)N)NC(=O)[C@@H]2CCCN2C1=O [Cyclic peptide 16, KKK-(Hcy)-IPRGDNFRA(Dab(acetyl))A] (H-KKK[hCys]IPRGDNFRA[Dab]A-OH; linker 4-14 via X2) | 50 to 100 | A (The residual rate of the cyclic peptide is 70% or more.) |  |  | 
CC(C)[C@@H]1NC(=O)[C@@H](NC(=O)[C@H](C)NC(=O)[C@H](CCCCN)NC(=O)[C@H](CCCCN)NC(=O)[C@@H](N)CCCCN)CCSCC(=O)NCC[C@@H](C(=O)O)NC(=O)[C@H](C)NC(=O)[C@H](Cc2ccccc2)NC(=O)[C@H]([C@@H](C)O)NC(=O)[C@H](CC(=O)O)NC(=O)CNC(=O)[C@H](CCCNC(=N)N)NC(=O)[C@@H]2CCCN2C1=O [Cyclic peptide 164, KKKA-(Hcy)-VPRGDTFA(Dab(acetyl))] (H-KKKA[hCys]VPRGDTFA[Dab]-OH; linker 5-14 via X2) |  |  | < 50 | A (The residual rate of the cyclic peptide is 70% or more.) | 
CC(C)[C@@H]1NC(=O)[C@H](CC(=O)O)NC(=O)CNC(=O)[C@H](CCCNC(=N)N)NC(=O)[C@H]([C@@H](C)O)NC(=O)[C@H](C(C)C)NC(=O)[C@@H](NC(=O)[C@H](C)NC(=O)[C@H](CCCCN)NC(=O)[C@H](CCCCN)NC(=O)[C@@H](N)CCCCN)CCSCC(=O)NCC[C@@H](C(=O)N[C@@H](C)C(=O)O)NC(=O)[C@H]([C@@H](C)O)NC(=O)[C@H](Cc2ccccc2)NC1=O [Cyclic peptide 113, KKKA-(Hcy)-VTRGDVFT(Dab(acetyl))A] (H-KKKA[hCys]VTRGDVFT[Dab]A-OH; linker 5-14 via X2) |  |  | 50 to 100 | A (The residual rate of the cyclic peptide is 70% or more.) | 
CC[C@H](C)[C@@H]1NC(=O)[C@@H](NC(=O)CNC(=O)[C@H](CCCCN)NC(=O)[C@H](CCCCN)NC(=O)[C@@H](N)CCCCN)CCSCC(=O)NCC[C@@H](C(=O)N[C@@H](C)C(=O)O)NC(=O)[C@H](CCCNC(=N)N)NC(=O)[C@H](Cc2ccccc2)NC(=O)[C@H](CO)NC(=O)[C@H](CC(=O)O)NC(=O)CNC(=O)[C@H](CCCNC(=N)N)NC(=O)[C@@H]2CCCN2C1=O [Cyclic peptide 72, KKKG-(Hcy)-IPRGDSFR(Dab(acetyl))A] (H-KKKG[hCys]IPRGDSFR[Dab]A-OH; linker 5-14 via X2) | 50 to 100 | A (The residual rate of the cyclic peptide is 70% or more.) |  |  | 
CC(C)[C@@H]1NC(=O)[C@H](CC(=O)O)NC(=O)CNC(=O)[C@H](CCCNC(=N)N)NC(=O)[C@@H]2CCCN2C(=O)[C@H](C(C)C)NC(=O)[C@@H](NC(=O)[C@H](CCCCN)NC(=O)[C@H](CCCCN)NC(=O)[C@@H](N)CCCCN)CCSCC(=O)NCC[C@@H](C(=O)O)NC(=O)[C@H](C)NC(=O)[C@H](Cc2ccccc2)NC1=O [Cyclic peptide 151, KKK-(Hcy)-VPRGDVFA(Dab(acetyl))] (H-KKK[hCys]VPRGDVFA[Dab]-OH; linker 4-13 via X2) |  |  | < 50 | A (The residual rate of the cyclic peptide is 70% or more.) | 
CC[C@H](C)[C@@H]1NC(=O)[C@@H](NC(=O)[C@H](CCCCN)NC(=O)[C@H](CCCCN)NC(=O)[C@@H](N)CCCCN)CCSCC(=O)NCC[C@@H](C(=O)N[C@@H](C)C(=O)O)NC(=O)[C@H](CCCNC(=N)N)NC(=O)[C@H](Cc2ccccc2)NC(=O)[C@H](CO)NC(=O)[C@H](CC(=O)O)NC(=O)CNC(=O)[C@H](CCCNC(=N)N)NC(=O)[C@@H]2CCCN2C1=O [Cyclic peptide 25, KKK-(Hcy)-IPRGDSFR(Dab(acetyl))A] (H-KKK[hCys]IPRGDSFR[Dab]A-OH; linker 4-13 via X2) | 50 to 100 | A (The residual rate of the cyclic peptide is 70% or more.) |  |  | 
N=C(N)NCCC[C@@H]1NC(=O)[C@H](Cc2ccc(O)cc2)NC(=O)[C@H](CC(N)=O)NC(=O)[C@H](CC(=O)O)NC(=O)CNC(=O)[C@H](CCCNC(=N)N)NC(=O)[C@@H]2CCCN2C(=O)[C@H](CCC(=O)O)NC(=O)[C@@H](NC(=O)[C@H](CCCCN)NC(=O)[C@H](CCCCN)NC(=O)[C@@H](N)CCCCN)CNC(=O)CSC[C@@H](C(=O)O)NC1=O [Cyclic peptide 167, KKK(Dap(acetyl))EPRGDNYR(C), reference compound] (H-KKK[Dap]EPRGDNYRC-OH; linker 4-13 via X1) |  |  | 50 to 100 | D (The residual rate of the cyclic peptide is less than 30%.) | a practically sufficient molecule stability could be obtained
CC[C@H](C)[C@@H]1NC(=O)[C@@H](NC(=O)[C@H](C)N)CCSCC(=O)NCC[C@@H](C(=O)NCC(=O)O)NC(=O)[C@H](C)NC(=O)[C@H](Cc2ccccc2)NC(=O)[C@H](CO)NC(=O)[C@H](CC(=O)O)NC(=O)CNC(=O)[C@H](CCCNC(=N)N)NC(=O)[C@@H]2CCCN2C1=O [Cyclic peptide 127, A-(Hcy)-IPRGDSFA(Dab(acetyl))G] (H-A[hCys]IPRGDSFA[Dab]G-OH; linker 2-11 via X2) |  |  | < 50 | A (The residual rate of the cyclic peptide is 70% or more.) | 
CC[C@H](C)[C@@H]1NC(=O)[C@@H](NC(=O)CNC(=O)[C@H](CCCCN)NC(=O)[C@H](CCCCN)NC(=O)[C@@H](N)CCCCN)CNC(=O)CSCC[C@@H](C(=O)N[C@@H](C)C(=O)O)NC(=O)[C@H](CCCNC(=N)N)NC(=O)[C@H](Cc2ccccc2)NC(=O)[C@H]([C@@H](C)O)NC(=O)[C@H](CC(=O)O)NC(=O)CNC(=O)[C@H](CCCNC(=N)N)NC(=O)[C@@H]2CCCN2C1=O [Cyclic peptide 117, KKKG(Dap(acetyl))IPRGDTFR-(Hcy)-A] (H-KKKG[Dap]IPRGDTFR[hCys]A-OH; linker 5-14 via X1) |  |  | < 50 | B (The residual rate of the cyclic peptide is 50% or more and less than 70%.) | 
